This is an account of results in patent publication US12448368B2, “Indole compounds as androgen receptor modulators” (NIDO BIOSCIENCES, INC., priority 2020, dated 2025).

The target in the assay is T1, androgen receptor (AR) (Homo sapiens, UniProt P10275, T878A).
T1 construct: LNCaP cells expressing ARR2PB-FireflyLuc and CMV-RenillaLuc; endogenous in cells; host or cells: LNCaP cells carrying ARR2PB-FireflyLuc and CMV-RenillaLuc reporters
T1 sequence (P10275 1-920 T878A): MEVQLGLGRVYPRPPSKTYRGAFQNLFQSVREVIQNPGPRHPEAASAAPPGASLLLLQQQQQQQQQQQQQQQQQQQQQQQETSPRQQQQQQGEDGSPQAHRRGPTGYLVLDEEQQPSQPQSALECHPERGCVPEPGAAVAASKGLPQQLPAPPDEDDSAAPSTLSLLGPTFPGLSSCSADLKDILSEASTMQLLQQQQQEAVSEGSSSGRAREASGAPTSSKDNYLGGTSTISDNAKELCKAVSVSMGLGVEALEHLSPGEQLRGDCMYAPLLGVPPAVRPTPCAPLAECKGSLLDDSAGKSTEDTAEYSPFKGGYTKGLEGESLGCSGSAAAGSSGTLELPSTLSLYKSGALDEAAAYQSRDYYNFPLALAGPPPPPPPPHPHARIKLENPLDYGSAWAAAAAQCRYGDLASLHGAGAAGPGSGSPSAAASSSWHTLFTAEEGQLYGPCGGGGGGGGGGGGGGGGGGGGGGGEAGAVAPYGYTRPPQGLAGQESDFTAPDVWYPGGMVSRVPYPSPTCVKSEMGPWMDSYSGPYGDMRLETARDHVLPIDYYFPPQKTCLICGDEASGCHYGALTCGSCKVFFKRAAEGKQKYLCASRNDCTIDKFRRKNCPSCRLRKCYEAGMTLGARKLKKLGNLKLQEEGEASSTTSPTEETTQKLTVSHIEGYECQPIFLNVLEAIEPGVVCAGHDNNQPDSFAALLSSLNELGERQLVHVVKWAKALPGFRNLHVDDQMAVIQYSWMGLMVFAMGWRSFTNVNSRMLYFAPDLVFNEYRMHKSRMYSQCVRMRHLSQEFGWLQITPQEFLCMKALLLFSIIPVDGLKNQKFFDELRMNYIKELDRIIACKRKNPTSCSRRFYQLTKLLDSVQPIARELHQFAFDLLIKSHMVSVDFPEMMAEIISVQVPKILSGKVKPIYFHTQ
The assay is described as follows: AR reporter assay in LNCaP cells expressing ARR2PB-FireflyLuc and CMV-RenillaLuc, antagonist mode (% remaining activity, IC50). It is filed as cell-based. Particulars: 48 h at 37° C., class symbols A-D, read-out: IC50. The protocol: LNCaP cells expressing ARR2PB-FireflyLuc and CMV-RenillaLuc were treated with indicated concentrations of test compounds, enzalutamide (negative control), or DHT (positive control)+/−0.5 nM DHT for 48 h at 37° C. […] Remaining activity (antagonist mode) was calculated as % Remaining Activity=100×[(Readsample−LCave)/(HCave−LCave)] where HC is cells treated with 0.5 nM DHT only and LC is cells treated with 10 uM enzalutamide+0.5 nM DHT. Activation (agonist mode) was calculated as % Activation=100×[(ReadSample−LCave)/(HCave−LCave)] where HC is cells treated with 1 uM DHT and LC is cells treated with DMSO. Dose response curves and IC50 values were calculated using non-linear regression analysis in XLfit.
The designation “A” indicates an IC50 value of >10 μM, “B” indicates an IC50 value between 1 μM and 10 μM; “C” indicates an IC50 value between 100 nM and 1 μM; and “D” indicates an IC50 value of less than 100 nM.
Take `N#Cc1cccc2c(-c3ccc(N)c(Cl)n3)c[nH]c12` [Compound 137]: the 50% inhibitory concentration (IC50) lay within 0.1 to 1 µM.

Turning to `Cc1cc(-c2c[nH]c3c(C#N)cccc23)ncc1N` [Compound 138], the half-maximal inhibitory concentration (IC50) was in the range of 1 to 10 µM.

For the compound `N#Cc1cccc2c(-c3ccc(N)c(C4CC4)n3)c[nH]c12` [Compound 139], the IC50 is below 0.1 µM.

With `Cc1nc(-c2c[nH]c3c(C)cccc23)ccc1N` [Compound 140], the IC50 fell in the range of 1 to 10 µM.

As to `Cc1nc(-c2c[nH]c3c(F)cccc23)ccc1N` [Compound 141], the IC50 lay within 1 to 10 µM.

For `Cc1nc(-c2c[nH]c3c(C4CC4)cccc23)ccc1N` [Compound 142], the IC50 was 1 to 10 µM.

For the compound `CC1(C)NC(=O)c2ccc(-c3c[nH]c4cc(F)c(F)cc34)cc21` [Compound 143], the IC50 is 1 to 10 µM.

In the case of `Cc1nc(-c2c[nH]c3c(-c4nnco4)cccc23)ccc1N` [Compound 144], the IC50 is above 10 µM.

Regarding `CNC(=O)c1cccc2c(-c3ccc(N)c(C)n3)c[nH]c12` [Compound 145], the IC50 is above 10 µM.

For the compound `CNc1ccc(-c2c[nH]c3c(C#N)cccc23)nc1C` [Compound 146], the IC50 is below 0.1 µM.

As for `CCNc1ccc(-c2c[nH]c3c(C#N)cccc23)nc1C` [Compound 147], the IC50 lay within 0.1 to 1 µM.

With `Cc1nc(-c2c[nH]c3c(C#N)cccc23)ccc1N(C)C` [Compound 148], the IC50 is below 0.1 µM.

Consider `Cc1nc(-c2c[nH]c3c(C#N)cccc23)cnc1N` [Compound 149], for which the concentration for half-maximal inhibition (IC50) was 0.1 to 1 µM.

Take `Cc1ccc2c(-c3ccc(N)c(C)n3)c[nH]c2c1C#N` [Compound 150]: the IC50 was in the range of 1 to 10 µM.

Turning to `Cc1nc(-c2c[nH]c3c(C#N)c(Cl)ccc23)ccc1N` [Compound 151], the half-inhibitory concentration (IC50) lay in the range of 0.1 to 1 µM.

Turning to `Cc1cc(C#N)c2[nH]cc(-c3ccc(N)c(C)n3)c2c1` [Compound 152], the half-inhibitory concentration (IC50) fell in the range of 1 to 10 µM.

With `Cc1nc(-c2c[nH]c3c(C#N)cc(Cl)cc23)ccc1N` [Compound 153], the IC50 fell in the range of 1 to 10 µM.

Consider `NCc1cc(F)cc2c(-c3ccc4ncccc4n3)c[nH]c12` [Compound 154], for which the IC50 lay within 0.1 to 1 µM.

Consider `Cc1nc(-c2c(C)[nH]c3c(C#N)cccc23)ccc1N` [Compound 155], for which the IC50 was above 10 µM.

Turning to `CN1C(=O)c2ccc(-c3c[nH]c4c(C#N)cccc34)nc2C1(C)C` [Compound 156], the IC50 fell in the range of 0.1 to 1 µM.

Consider `COCCN1C(=O)c2ccc(-c3c[nH]c4c(C#N)cccc34)nc2C1(C)C` [Compound 157], for which the IC50 is above 10 µM.

`CC1(C)c2nc(-c3c[nH]c4c(C#N)cccc34)ccc2C(=O)N1C1CCOC1` (stereo not shown) [Compound 158]: the IC50 was above 10 µM.

On to `Cc1nc(-c2c[nH]c3c(C(F)(F)F)cccc23)ccc1N` [Compound 159], for which the concentration for half-maximal inhibition (IC50) lay in the range of 0.1 to 1 µM.

Consider `CC(=O)c1cccc2c(-c3ccc(N)c(C)n3)c[nH]c12` [Compound 160], for which the IC50 is above 10 µM.

Regarding `Cc1cccc(-c2c[nH]c3cc(C#N)ccc23)n1` [Compound 161], the concentration for half-maximal inhibition (IC50) lay in the range of 1 to 10 µM.

For `Cc1cccc(-c2c[nH]c3ccc(C#N)cc23)n1` [Compound 162], the IC50 was 1 to 10 µM.

Consider `COCCNc1ccc(-c2c[nH]c3c(C#N)cccc23)nc1C` [Compound 163], for which the IC50 lay in the range of 0.1 to 1 µM.

As to `Cc1nc(-c2c[nH]c3c(C#N)cccc23)ccc1NC1CCOC1` (stereo not shown) [Compound 164], the IC50 lay in the range of 0.1 to 1 µM.

`COCCOc1ccc(-c2c[nH]c3c(C#N)cccc23)nc1C` [Compound 165]: the half-inhibitory concentration (IC50) lay in the range of 0.1 to 1 µM.

As to `COc1ccc(-c2c[nH]c3c(C#N)cccc23)nc1C` [Compound 166], the half-inhibitory concentration (IC50) is below 0.1 µM.

As to `COCCOc1cccc(-c2c[nH]c3c(C#N)cccc23)n1` [Compound 167], the concentration for half-maximal inhibition (IC50) was in the range of 1 to 10 µM.

Turning to `N#Cc1cccc2c(-c3cccc(OC4CCNC4)n3)c[nH]c12` (stereo not shown) [Compound 168], the half-maximal inhibitory concentration (IC50) is above 10 µM.

For the compound `COCCOc1nc(-c2c[nH]c3c(C#N)cccc23)ccc1N` [Compound 170], the IC50 was 0.1 to 1 µM.

Regarding `N#Cc1cccc2c(-c3cnc(OC(F)F)c(N)c3)c[nH]c12` [Compound 171], the IC50 is below 0.1 µM.

Consider `N#Cc1cccc2c(-c3cnc(N)c(OC(F)F)n3)c[nH]c12` [Compound 172], for which the IC50 was below 0.1 µM.

Turning to `CN1C(=O)c2ccc(-c3c[nH]c4c(C#N)cccc34)nc2C1(C)CO` (stereo not shown) [Compound 173], the half-maximal inhibitory concentration (IC50) lay within 1 to 10 µM.

As for `N#Cc1cccc2c(-c3cnccn3)c[nH]c12` [Compound 174], the 50% inhibitory concentration (IC50) lay in the range of 1 to 10 µM.

On to `Cc1cncc(-c2c[nH]c3c(C#N)cccc23)n1` [Compound 175], for which the IC50 lay within 0.1 to 1 µM.

With `N#Cc1cccc2c(-c3ccccn3)c[nH]c12` [Compound 176], the IC50 is 0.1 to 1 µM.

`COCCN(C)c1cncc(-c2c[nH]c3c(C#N)cccc23)n1` [Compound 177]: the half-inhibitory concentration (IC50) is 0.1 to 1 µM.

`N#Cc1cccc2c(-c3cccc(N4CCC4)n3)c[nH]c12` [Compound 178]: the concentration for half-maximal inhibition (IC50) lay in the range of 0.1 to 1 µM.

For the compound `Cc1nc2ccc(-c3c[nH]c4c(C#N)cccc34)cc2s1` [Compound 179], the concentration for half-maximal inhibition (IC50) lay in the range of 0.1 to 1 µM.

As to `N#Cc1cccc2c(-c3ccc4nc(N)sc4c3)c[nH]c12` [Compound 180], the half-maximal inhibitory concentration (IC50) fell in the range of 1 to 10 µM.

With `Cc1nc(-c2c[nH]c3c(C#N)cccc23)cnc1NC1CCNC1` (stereo not shown) [Compound 181], the concentration for half-maximal inhibition (IC50) fell in the range of 0.1 to 1 µM.

As for `Cc1nc(-c2c[nH]c3c(C#N)cccc23)cnc1NC1CCN(C)C1` (stereo not shown) [Compound 182], the 50% inhibitory concentration (IC50) lay in the range of 0.1 to 1 µM.

On to `Cc1nc(-c2c[nH]c3c(C#N)cccc23)cnc1OC1CCNC1` (stereo not shown) [Compound 183], for which the IC50 fell in the range of 0.1 to 1 µM.

In the case of `CC1(C)NC(=O)c2ccc(-c3c[nH]c4c(C#N)c(F)ccc34)nc21` [Compound 184], the half-inhibitory concentration (IC50) was 0.1 to 1 µM.

For the compound `CC1(C)NC(=O)c2ccc(-c3c[nH]c4c(C#N)c(Cl)ccc34)nc21` [Compound 185], the IC50 is 1 to 10 µM.

In the case of `Cc1nc(-c2c[nH]c3c(C(F)(F)F)cccc23)cnc1N` [Compound 186], the IC50 lay in the range of 0.1 to 1 µM.

Consider `CC1(C)NC(=O)c2ccc(-c3c[nH]c4c(C(F)(F)F)cccc34)nc21` [Compound 187], for which the IC50 is below 0.1 µM.

Take `CN1C(=O)c2ccc(-c3c[nH]c4c(C(F)(F)F)cccc34)nc2C1(C)C` [Compound 188]: the half-maximal inhibitory concentration (IC50) was 0.1 to 1 µM.

On to `Cc1nc(-c2c[nH]c3c(C#N)cccc23)ccc1NCCO` [Compound 190], for which the half-inhibitory concentration (IC50) fell in the range of 0.1 to 1 µM.

Take `Cc1nc(-c2c[nH]c3c(C#N)cccc23)ccc1NC(C)C(=O)N(C)C` (stereo not shown) [Compound 191]: the half-inhibitory concentration (IC50) is 1 to 10 µM.

Turning to `N#Cc1cccc2c(-c3ccc(N)c(OC(F)F)n3)c[nH]c12` [Compound 192], the IC50 was in the range of 0.1 to 1 µM.

`Cc1nc(-c2c[nH]c3c(C#N)cccc23)cnc1OC1CCN(C)C1` (stereo not shown) [Compound 193]: the IC50 is 1 to 10 µM.

With `CC(=O)N1CCC(Oc2ncc(-c3c[nH]c4c(C#N)cccc34)nc2C)C1` (stereo not shown) [Compound 194], the IC50 fell in the range of 0.1 to 1 µM.

With `COC(C)CNc1ccc(-c2c[nH]c3c(C#N)cccc23)nc1C` (stereo not shown) [Compound 195], the IC50 lay in the range of 0.1 to 1 µM.

As for `Cc1nc(-c2c[nH]c3c(C#N)cccc23)ccc1NCCN(C)C` [Compound 196], the IC50 lay within 1 to 10 µM.

As for `Cc1nc(-c2c[nH]c3c(C#N)cccc23)ccc1NCC(=O)N(C)C` [Compound 197], the 50% inhibitory concentration (IC50) was above 10 µM.

Regarding `Cc1nc(-c2c[nH]c3c(C(F)(F)F)cccc23)cnc1OC1CCNC1` (stereo not shown) [Compound 198], the 50% inhibitory concentration (IC50) lay in the range of 0.1 to 1 µM.

As for `Cc1nc(-c2c[nH]c3c(C#N)cccc23)ccc1OC1CCNC1=O` (stereo not shown) [Compound 199], the 50% inhibitory concentration (IC50) was in the range of 1 to 10 µM.
